What was measured:
[1] = Panel evaluation in crackers with reduced NaCl containing KCl; format: in vivo; conditions: 200 ppm H2S
Method: A dosage of 200 ppm of H2S was added to crackers with reduced content of sodium chloride (NaCl) and containing potassium chloride (KCl; Panreac). The composition of the crackers is disclosed in Table 4 below:
The taste masking effect was assayed, following an analogous procedure to the one disclosed in Example 1. A panel of experts was used to determine the reduction in unpleasant taste impressions of the potassium chloride-containing preparations after addition of H2S.

[2] = Panel evaluation in dark chocolate 95%; format: in vivo
Method: Reduction of unpleasant taste impressions in dark chocolate (95%) preparations was evaluated using different concentrations of H2S (100 ppm and 200 ppm).
Hesperidin 2S (dry powder) was incorporated into a sample of melted dark chocolate (95%). The liquid mass was cooled and mold, obtaining a solid chocolate.
A panel of experts was used to determine the reduction in unpleasant taste impressions of the dark chocolate (95%) preparations.

[3] = Panel evaluation in fresh squeezed orange juices; format: in vivo; conditions: 100 ppm or 200 ppm H2S; fresh squeezed orange juice
Method: NaOH:H2O solutions containing different concentrations (100 ppm and 200 ppm) of Hesperidin 2S were prepared as explained above (Table 1) and added to fresh squeezed orange juices.
A panel of experts was used to determine the reduction in unpleasant tastes of the fresh squeezed orange juices after addition of different concentrations of H2S.

[4] = Panel evaluation in limonin solution (greening disease model); format: in vivo; conditions: 200 ppm H2S in limonin 50 ppm solution
Method: In order to determine the reduction in unpleasant taste impressions (bitterness) by hesperidin in a greening disease model, a limonin solution was prepared as indicated in Table 6. This solution was used for testing. Limonin (99.66%) was purchased from TargetMol.
The effect of H2S (200 ppm) in a limonin solution (50 ppm) was evaluated. A panel of experts was used to determine the reduction in unpleasant taste impressions of the limonin-containing preparation.

[5] = Masking bitterness of paracetamol: test panel, equibitter paracetamol solution; format: in vivo
Method: The bitter masking effect of hesperidin against paracetamol was assayed. The anti-bittering effect was measured as a dose-response profile vs. a solution of paracetamol.
A calibrated test panel compared each solution with several solutions of paracetamol in water at different concentrations and determined the equibitter paracetamol solution. The equibitter solution was calculated as the average of all the evaluations of the panel.
The masking effect or percentage of bitterness reduction was then calculated from the reference amount of paracetamol contained in each tested solution (5000 ppm) and the amount of paracetamol in the equibitter solution, using the following formula: […]
Thus, for example, a solution containing 5000 ppm of paracetamol and 250 ppm of hesperidin was equibitter to a solution containing 4000 ppm of paracetamol. Therefore, the masking effect was 20%.
The bitter masking effect of a racemic hesperidin (57% hesperidin 2S: 43% hesperidin 2R; purchased by HealthTech Bio Actives, S.L.U. Beniel, Spain) against paracetamol was also assayed. The anti-bittering effect was measured as a dose-response profile vs. a solution of paracetamol as described above.
Further, the bitter masking effect of a different flavonoid compound, neodiosmin (purchased by HealthTech Bio Actives, S.L.U. Beniel, Spain), was also tested. The anti-bittering effect was measured as a dose-response profile vs. a solution of paracetamol as explained before.

[6] = Panel evaluation in protein milkshake; format: in vivo; conditions: 100 ppm or 200 ppm H2S
Method: NaOH:H2O solutions containing different concentrations (100 ppm and 200 ppm) of Hesperidin 2S were prepared as explained above (Table 1) and added to a protein milkshake prepared as indicated in Table 12 below.
The taste masking effect was assayed, following an analogous procedure to the one used in Example 1. A panel of experts was used to determine the reduction in unpleasant taste impressions of the protein milkshake preparations after addition of H2S.

[7] = Panel evaluation in greening affected orange juices; format: in vivo; conditions: greening affected orange juice
Method: Orange Juice samples obtained from oranges from trees afflicted with greening disease were provided by F&M Solutions (Brasil). The juice samples were prepared by squeezing oranges collected from afflicted tree branches from local Brazilian farmers. The squeezed orange juice was bottled and pasteurized by standard methods well known in the art.
Different concentrations of Hesperidin 2S (100 ppm and 200 ppm) were evaluated in the orange juices from greening afflicted oranges.
A panel of experts was used to determine the reduction in unpleasant taste impressions of the different samples.

[8] = Panel evaluation in plant-based burger containing oleuropeins; format: in vivo; conditions: plant-based burger with 2000 ppm Olews 40%
Method: Reduction of unpleasant taste impression in a plant-based burger was evaluated using different concentrations of H2S (100 ppm and 200 ppm). Hesperidin 2S (dry powder) was incorporated into the preparations containing 2000 ppm Olews 40% provided by HealthTech Bio Actives, S.L.U. (Beniel, Spain) (2000 ppm Olews 40%=[…]) as indicated in Table 11 below:
A panel of experts was used to determine the reduction in unpleasant taste impressions of the plant-based burger preparations.

[9] = Panel evaluation in orange juices containing oleuropeins; format: in vivo; conditions: orange juice with 500 ppm Olews 40%
Method: NaOH:H2O solutions containing different concentrations (100 ppm and 200 ppm) of Hesperidin 2S were prepared as explained above (Table 1) and added to orange juices containing 500 ppm Olews 40% (500 ppm Olews 40%=160 ppm oleuropein). Olews 40% provided by HealthTech Bio Actives S.L.U. (Beniel, Spain).
The taste masking effect against oleuropeins was assayed following an analogous procedure to the one used in Example 1 for paracetamol.
For each tested solution, a test panel determined the equibitter oleuropein solution, and the masking effect was calculated as explained in Example 1. A panel of experts was used to determine the reduction in unpleasant taste impressions of the orange juice preparations containing oleuropeins after addition of H2S.

[10] = Panel evaluation in tonic water; format: in vivo; conditions: quinine salt 78 ppm
Method: NaOH:H2O solutions containing different concentrations (100 ppm and 200 ppm) of Hesperidin 2S were prepared as explained above (Table 1) and added to a tonic water samples prepared as indicated in Table 10 below:
A panel of experts was used to determine the reduction in unpleasant taste impression of the different samples.

Solubility in water = format: physicochemical
Method: Hesperidin 2S has a very low solubility in water (less than 10 ppm). However, in presence of NaOH, its solubility increases. In order to study the component in liquid matrixes, a non-heated H2O—NaOH solution was prepared (Table 1).

[11] = 10 ppm test substance in 5000 ppm paracetamol aqueous solution
[12] = 50 ppm test substance in 5000 ppm paracetamol aqueous solution
[13] = 100 ppm test substance in 5000 ppm paracetamol aqueous solution
[14] = 250 ppm test substance in 5000 ppm paracetamol aqueous solution
[15] = 250 ppm test substance in 5000 ppm paracetamol aqueous solution, listed as hesperidin
[16] = 500 ppm test substance in 5000 ppm paracetamol aqueous solution

Which “pungent and metallic notes” value ([1]; KCl-containing crackers) does the source give for COc1ccc([C@@H]2CC(=O)c3c(O)cc(O[C@@H]4O[C@H](CO[C@@H]5O[C@@H](C)[C@H](O)[C@@H](O)[C@H]5O)[C@@H](O)[C@H](O)[C@H]4O)cc3O2)cc1O (racemic) [Hesperidin 2S, (2S)-5-hydroxy-2-(3-hydroxy-4-methoxyphenyl)-7-[(2S,3R,4S,5S,6R)-3,4,5-trihydroxy-6-{[(2R,3R,4R,5R,6S)-3,4,5-trihydroxy-6-methyloxan-2-yl]oxymethyl}oxan-2-yl]oxy-2,3-dihydrochromen-4-one] here?
Its value is “suppressed”.

And the saltiness ([1]; crackers with reduced sodium chloride)?
The saltiness was “increase”.

What about the bitterness and astringency ([2]; 200 ppm H2S) of the same molecule?
The bitterness and astringency was “decreased”.

What about the flavonoid notes ([2]; 200 ppm H2S) of the same molecule?
Its flavonoid notes is “not present”.

What about the bitterness ([2]; 200 ppm H2S as printed) of the same molecule?
The bitterness was “decrease”.

What about the cocoa notes ([2]; 200 ppm H2S as printed) of the same molecule?
The cocoa notes was “slightly enhanced”.

What about the “astringent and bitter taste” value [3] of the same molecule?
The value was “clearly reduced”.

What about the “% of bitterness reduction” value [4] of the same molecule?
The value was 30%.

And the Equibitter [4]?
Its Equibitter is 35 ppm.

And the “% of bitterness reduction” value [5, 11]?
Its value is 5%.

What about the Equibitter paracetamol concentration [5, 11] of the same molecule?
Its Equibitter paracetamol concentration is 4750 ppm.

What about the “% of bitterness reduction” value [5, 12] of the same molecule?
Its value is 11%.

What about the Equibitter paracetamol concentration [5, 12] of the same molecule?
The Equibitter paracetamol concentration was 4450 ppm.

What about the “% of bitterness reduction” value [5, 13] of the same molecule?
Its value is 20%.

And the Equibitter paracetamol concentration [5, 13]?
The Equibitter paracetamol concentration was 4000 ppm.

What about the “% of bitterness reduction” value [5, 14] of the same molecule?
Its value is 37%.

And the Equibitter paracetamol concentration [5, 14]?
Its Equibitter paracetamol concentration is 3150 ppm.

And the “% of bitterness reduction” value ([5]; 250 ppm test substance in 5000 ppm paracetamol aqueous solution, listed as H2S)?
Its value is 37%.

What about the “% of bitterness reduction” value [5, 15] of the same molecule?
The value was 20%.

What about the Equibitter paracetamol concentration [5, 15] of the same molecule?
Its Equibitter paracetamol concentration is 4000 ppm.

And the “% of bitterness reduction” value ([5]; 250 ppm test substance in 5000 ppm paracetamol aqueous solution, listed as non-racemic hesperidin 2S)?
The value was 37%.

And the bitter taste [6]?
The bitter taste was “reduced”.

And the dry fava notes [6]?
Its dry fava notes is “reduced”.

And the “bitterness, acidity and astringency” value ([7]; 100 ppm H2S)?
The value was “significant reduction”.

What about the flavonoid note ([7]; 100 ppm H2S) of the same molecule?
Its flavonoid note is “noticeable”.

What about the “green orange notes and bitter aftertaste” value ([7]; 100 ppm H2S) of the same molecule?
Its value is “Reduction”.

What about the overall orange notes ([7]; 100 ppm H2S) of the same molecule?
Its overall orange notes is “slight reduction”.

And the flavonoid note ([7]; 200 ppm H2S)?
Its flavonoid note is “increased”.

What about the “green orange notes and bitter aftertaste” value ([7]; 200 ppm H2S) of the same molecule?
The value was “reduction”.

And the overall orange notes ([7]; 200 ppm H2S)?
The overall orange notes was “reduction”.

And the “bitterness, acidity and astringency” value ([7]; 200 ppm H2S, to a lesser extent than 100 ppm)?
The value was “reduction”.

What about the bitterness ([8]; 100 ppm H2S) of the same molecule?
The bitterness was “decrease”.

What about the flavonoid notes ([8]; 100 ppm H2S) of the same molecule?
Its flavonoid notes is “not present”.

What about the woody off-flavor notes ([8]; 100 ppm H2S) of the same molecule?
Its woody off-flavor notes is “reduced”.

And the “bitterness and bean notes” value ([8]; 200 ppm H2S)?
Its value is “decreased”.

What about the flavonoid notes ([8]; 200 ppm H2S) of the same molecule?
Its flavonoid notes is “not present”.

What about the woody off-flavor notes ([8]; 200 ppm H2S) of the same molecule?
Its woody off-flavor notes is “reduced”.

What about the orange notes ([9]; 200 ppm H2S (FIG. 1B)) of the same molecule?
Its orange notes is “enhanced”.

What about the “woody and bitter taste coming from the oleuropein masked” value ([9]; 200 ppm H2S (FIG. 1B)) of the same molecule?
The value was 40%.

And the “woody and bitter taste” value ([9]; 200 ppm H2S as printed (FIG. 1A))?
Its value is “masked”.

What about the bitterness ([10]; 100 ppm H2S) of the same molecule?
Its bitterness is “significant reduction”.

And the bitterness ([10]; 200 ppm H2S)?
Its bitterness is “reduction”.

And the “solubility in presence of NaOH” value (Solubility in water; in presence of NaOH)?
The value was “increases”.

And the solubility in water (Solubility in water; water)?
The solubility in water was “less than 10 ppm”.

What does the source list for COc1ccc([C@@H]2CC(=O)c3c(O)cc(O[C@@H]4O[C@H](CO[C@@H]5O[C@@H](C)[C@H](O)[C@@H](O)[C@H]5O)[C@@H](O)[C@H](O)[C@H]4O)cc3O2)cc1O (racemic) [Racemic Hesperidin, hesperidin]?
% of bitterness reduction [5, 11]: 4%; Equibitter paracetamol concentration [5, 11]: 4800 ppm; % of bitterness reduction [5, 12]: 6%; Equibitter paracetamol concentration [5, 12]: 4700 ppm; % of bitterness reduction [5, 13]: 13%; Equibitter paracetamol concentration [5, 13]: 4350 ppm; % of bitterness reduction [5, 14]: 18%; Equibitter paracetamol concentration [5, 14]: 4100 ppm

What does the source list for COc1ccc(-c2cc(=O)c3c(O)cc(O[C@@H]4O[C@H](CO)[C@@H](O)[C@H](O)[C@H]4O[C@@H]4O[C@@H](C)[C@H](O)[C@@H](O)[C@H]4O)cc3o2)cc1O [Neodiosmin, neodiosmin, reference compound]?
% of bitterness reduction [5, 12]: 12%; Equibitter paracetamol concentration [5, 12]: 4400 ppm; % of bitterness reduction [5, 13]: 12%; Equibitter paracetamol concentration [5, 13]: 4400 ppm; % of bitterness reduction [5, 14]: 16%; Equibitter paracetamol concentration [5, 14]: 4200 ppm; % of bitterness reduction [5, 16]: 24%; Equibitter paracetamol concentration [5, 16]: 3800 ppm

From US20240148038A1, “TASTE-MASKING COMPOUNDS AND COMPOSITIONS AND USES THEREOF” (HEALTHTECH BIO ACTIVES, S.L.U., priority 2021, published 2024)
